Results from ChEMBL document CHEMBL3885881, “DrugMatrix”.

Species: Rattus norvegicus
Assay: DrugMatrix - Regimen: Daily Repeat
Format: toxicity, organism-based, Sprague-Dawley
Design: regimen Daily Repeat, gender Male, age 6-8 weeks
Details: in vivo, po, route oral GAVAGE, […]; for ABSOLUTE BASOPHIL / ABSOLUTE EOSINOPHIL / ABSOLUTE LYMPHOCYTE / ABSOLUTE MONOCYTE / ABSOLUTE SEGMENTED NEUTROPHIL / BASOPHIL / EOSINOPHIL / ERYTHROCYTE COUNT / HEMATOCRIT / HEMOGLOBIN / LEUKOCYTE COUNT / LYMPHOCYTE / MEAN CORPUSCULAR HEMOGLOBIN / MEAN CORPUSCULAR HEMOGLOBIN CONCENTRATION / MEAN CORPUSCULAR VOLUME / MONOCYTE / NEUTROPHIL / NUCLEATED RED BLOOD CELLS / PLATELET COUNT: tissue Blood; for ALANINE AMINOTRANSFERASE / ALBUMIN / ALKALINE PHOSPHATASE / ASPARTATE AMINOTRANSFERASE / BLOOD UREA NITROGEN / CARBON DIOXIDE / CHLORIDE / CHOLESTEROL / CREATINE PHOSPHOKINASE / CREATININE / GLUCOSE / LACTATE DEHYDROGENASE / LIPASE / PHOSPHORUS / POTASSIUM / SODIUM / TOTAL BILIRUBIN / TOTAL PROTEIN / URIC ACID: tissue Plasma
[1] = 75 mg/kg, 72 h, dose level High, time 3 day
[2] = 75 mg/kg, 120 h, dose level High, time 5 day
[3] = 72 h, dose 7.5 mg/Kg, dose level Low, time 3 day
[4] = 120 h, dose 7.5 mg/Kg, dose level Low, time 5 day

C[C@@H]1CC[C@@]2(OC1)O[C@H]1[C@@H](O)[C@H]3[C@@H]4CC[C@H]5C[C@@H](O[C@@H]6O[C@H](CO)[C@H](O[C@@H]7O[C@H](CO)C(O)[C@H](O[C@@H]8OC[C@@H](O)[C@H](O)[C@H]8O)[C@H]7O[C@@H]7O[C@H](CO)[C@H](O)[C@H](O[C@@H]8O[C@H](CO)[C@@H](O)[C@H](O)[C@H]8O)[C@H]7O)[C@H](O)[C@H]6O)[C@H](O)C[C@]5(C)[C@H]4CC[C@]3(C)[C@H]1[C@@H]2C (some centres not stated) [DIGITONIN]
ABSOLUTE BASOPHIL [1]: 0 CELLS/uL | ABSOLUTE EOSINOPHIL [1]: 39.67 CELLS/uL | ABSOLUTE LYMPHOCYTE [1]: 12631.67 CELLS/uL | ABSOLUTE MONOCYTE [1]: 0 CELLS/uL | ABSOLUTE SEGMENTED NEUTROPHIL [1]: 1028.67 CELLS/uL | BASOPHIL [1]: 0% | EOSINOPHIL [1]: 0.33% | ERYTHROCYTE COUNT [1]: 5.46 x10E6/uL | HEMATOCRIT [1]: 34.9% | HEMOGLOBIN [1]: 13.03 G/DL | LEUKOCYTE COUNT [1]: 13.7 x10E3/uL | LYMPHOCYTE [1]: 92.33% | MEAN CORPUSCULAR HEMOGLOBIN [1]: 23.83 pg | MEAN CORPUSCULAR HEMOGLOBIN CONCENTRATION [1]: 37.37 G/DL | MEAN CORPUSCULAR VOLUME [1]: 63.8 fL | MONOCYTE [1]: 0% | NEUTROPHIL [1]: 7.33% | NUCLEATED RED BLOOD CELLS [1]: 0 /100WBC | PLATELET COUNT [1]: 1082.67 x10E3/uL | ALANINE AMINOTRANSFERASE [1]: 64 u/L | ALBUMIN [1]: 4.23 G/DL | ALKALINE PHOSPHATASE [1]: 395.33 u/L | ASPARTATE AMINOTRANSFERASE [1]: 86.33 u/L | BLOOD UREA NITROGEN [1]: 16.67 mg/dL | CARBON DIOXIDE [1]: 25.33 mmol/L | CHLORIDE [1]: 102 MEQ/L | CHOLESTEROL [1]: 78 mg/dL | CREATINE PHOSPHOKINASE [1]: 233.67 u/L | CREATININE [1]: 0.17 mg/dL | GLUCOSE [1]: 178.33 mg/dL | LACTATE DEHYDROGENASE [1]: 118.33 u/L | LIPASE [1]: 9 u/L | PHOSPHORUS [1]: 13.13 mg/dL | POTASSIUM [1]: 6.32 MEQ/L | SODIUM [1]: 144.17 MEQ/L | TOTAL BILIRUBIN [1]: 0.23 mg/dL | TOTAL PROTEIN [1]: 5.93 G/DL | URIC ACID [1]: 2.1 mg/dL | ABSOLUTE BASOPHIL [2]: 0 CELLS/uL | ABSOLUTE EOSINOPHIL [2]: 43.33 CELLS/uL | ABSOLUTE LYMPHOCYTE [2]: 6877 CELLS/uL | ABSOLUTE MONOCYTE [2]: 37 CELLS/uL | ABSOLUTE SEGMENTED NEUTROPHIL [2]: 776 CELLS/uL | BASOPHIL [2]: 0% | EOSINOPHIL [2]: 0.67% | ERYTHROCYTE COUNT [2]: 5.49 x10E6/uL | HEMATOCRIT [2]: 35.43% | HEMOGLOBIN [2]: 13.27 G/DL | LEUKOCYTE COUNT [2]: 7.73 x10E3/uL | LYMPHOCYTE [2]: 89.33% | MEAN CORPUSCULAR HEMOGLOBIN [2]: 24.17 pg | MEAN CORPUSCULAR HEMOGLOBIN CONCENTRATION [2]: 37.47 G/DL | MEAN CORPUSCULAR VOLUME [2]: 64.5 fL | MONOCYTE [2]: 0.33% | NEUTROPHIL [2]: 9.67% | NUCLEATED RED BLOOD CELLS [2]: 0 /100WBC | PLATELET COUNT [2]: 1285 x10E3/uL | ALANINE AMINOTRANSFERASE [2]: 65.67 u/L | ALBUMIN [2]: 4.4 G/DL | ALKALINE PHOSPHATASE [2]: 444.33 u/L | ASPARTATE AMINOTRANSFERASE [2]: 85.67 u/L | BLOOD UREA NITROGEN [2]: 15.67 mg/dL | CARBON DIOXIDE [2]: 24 mmol/L | CHLORIDE [2]: 100 MEQ/L | CHOLESTEROL [2]: 62 mg/dL | CREATINE PHOSPHOKINASE [2]: 202.67 u/L | CREATININE [2]: 0.15 mg/dL | GLUCOSE [2]: 146.67 mg/dL | LACTATE DEHYDROGENASE [2]: 137.67 u/L | LIPASE [2]: 8.33 u/L | PHOSPHORUS [2]: 10.97 mg/dL | POTASSIUM [2]: 5.88 MEQ/L | SODIUM [2]: 147.6 MEQ/L | TOTAL BILIRUBIN [2]: 0.23 mg/dL | TOTAL PROTEIN [2]: 6 G/DL | URIC ACID [2]: 0.83 mg/dL | ABSOLUTE BASOPHIL [3]: 0 CELLS/uL | ABSOLUTE EOSINOPHIL [3]: 77.33 CELLS/uL | ABSOLUTE LYMPHOCYTE [3]: 10391.33 CELLS/uL | ABSOLUTE MONOCYTE [3]: 34.33 CELLS/uL | ABSOLUTE SEGMENTED NEUTROPHIL [3]: 1397 CELLS/uL | BASOPHIL [3]: 0% | EOSINOPHIL [3]: 0.67% | ERYTHROCYTE COUNT [3]: 5.69 x10E6/uL | HEMATOCRIT [3]: 35.5% | HEMOGLOBIN [3]: 13.27 G/DL | LEUKOCYTE COUNT [3]: 11.9 x10E3/uL | LYMPHOCYTE [3]: 87.33% | MEAN CORPUSCULAR HEMOGLOBIN [3]: 23.33 pg | MEAN CORPUSCULAR HEMOGLOBIN CONCENTRATION [3]: 37.4 G/DL | MEAN CORPUSCULAR VOLUME [3]: 62.47 fL | MONOCYTE [3]: 0.33% | NEUTROPHIL [3]: 11.67% | NUCLEATED RED BLOOD CELLS [3]: 0 /100WBC | PLATELET COUNT [3]: 1266.67 x10E3/uL | ALANINE AMINOTRANSFERASE [3]: 59.33 u/L | ALBUMIN [3]: 4.13 G/DL | ALKALINE PHOSPHATASE [3]: 424 u/L | ASPARTATE AMINOTRANSFERASE [3]: 79 u/L | BLOOD UREA NITROGEN [3]: 14 mg/dL | CARBON DIOXIDE [3]: 25.67 mmol/L | CHLORIDE [3]: 100.67 MEQ/L | CHOLESTEROL [3]: 70.67 mg/dL | CREATINE PHOSPHOKINASE [3]: 187 u/L | CREATININE [3]: 0.18 mg/dL | GLUCOSE [3]: 156.33 mg/dL | LACTATE DEHYDROGENASE [3]: 100.33 u/L | LIPASE [3]: 8.67 u/L | PHOSPHORUS [3]: 12.73 mg/dL | POTASSIUM [3]: 6.51 MEQ/L | SODIUM [3]: 145.03 MEQ/L | TOTAL BILIRUBIN [3]: 0.23 mg/dL | TOTAL PROTEIN [3]: 5.73 G/DL | URIC ACID [3]: 2.23 mg/dL | ABSOLUTE BASOPHIL [4]: 0 CELLS/uL | ABSOLUTE EOSINOPHIL [4]: 102 CELLS/uL | ABSOLUTE LYMPHOCYTE [4]: 14620 CELLS/uL | ABSOLUTE MONOCYTE [4]: 219 CELLS/uL | ABSOLUTE SEGMENTED NEUTROPHIL [4]: 1792.33 CELLS/uL | BASOPHIL [4]: 0% | EOSINOPHIL [4]: 0.67% | ERYTHROCYTE COUNT [4]: 5.47 x10E6/uL | HEMATOCRIT [4]: 35.23% | HEMOGLOBIN [4]: 13.57 G/DL | LEUKOCYTE COUNT [4]: 16.73 x10E3/uL | LYMPHOCYTE [4]: 87.33% | MEAN CORPUSCULAR HEMOGLOBIN [4]: 24.83 pg | MEAN CORPUSCULAR HEMOGLOBIN CONCENTRATION [4]: 38.5 G/DL | MEAN CORPUSCULAR VOLUME [4]: 64.37 fL | MONOCYTE [4]: 1.33% | NEUTROPHIL [4]: 10.67% | NUCLEATED RED BLOOD CELLS [4]: 0 /100WBC | PLATELET COUNT [4]: 1216 x10E3/uL | ALANINE AMINOTRANSFERASE [4]: 57.33 u/L | ALBUMIN [4]: 4.3 G/DL | ALKALINE PHOSPHATASE [4]: 437 u/L | ASPARTATE AMINOTRANSFERASE [4]: 80.33 u/L | BLOOD UREA NITROGEN [4]: 14.67 mg/dL | CARBON DIOXIDE [4]: 28.67 mmol/L | CHLORIDE [4]: 100.67 MEQ/L | CHOLESTEROL [4]: 53.67 mg/dL | CREATINE PHOSPHOKINASE [4]: 222.67 u/L | CREATININE [4]: 0.22 mg/dL | GLUCOSE [4]: 160.33 mg/dL | LACTATE DEHYDROGENASE [4]: 207.67 u/L | LIPASE [4]: 8 u/L | PHOSPHORUS [4]: 11.63 mg/dL | POTASSIUM [4]: 6.09 MEQ/L | SODIUM [4]: 144.37 MEQ/L | TOTAL BILIRUBIN [4]: 0.2 mg/dL | TOTAL PROTEIN [4]: 6.03 G/DL | URIC ACID [4]: 1.47 mg/dL
